{"source": "paper PMC10221074", "about": "“Functional Profiling of the A-Family of Venom Peptides from the Wolf Spider Lycosa shansia” (Toxins, 2023)", "key": {"[1]": {"test_system": "Pseudomonas aeruginosa DSM 1117", "test": "Antibacterial growth assay (OD600)", "details": "for Bacterial growth relative to medium, P. aeruginosa (1117), replicate 1 / Bacterial growth relative to medium, P. aeruginosa (1117), replicate 2 / Bacterial growth relative to medium, P. aeruginosa (1117), replicate 3: OD600, medium = 100, MH II broth; for Bacterial growth relative to medium, P. aeruginosa (1117), replicate 1: replicate column 1; for Bacterial growth relative to medium, P. aeruginosa (1117), replicate 2: replicate column 2; for Bacterial growth relative to medium, P. aeruginosa (1117), replicate 3: replicate column 3", "description": "(§1) Cryo-conserved cultures of selected bacterial strains (Table 4) were transferred to Tryptic Soy Agar (TSA) plates (Carl Roth) with a sterile inoculation loop, sealed with Parafilm (BEMIS, Neenah, WI, USA), and incubated for 1–2 days at 37 °C depending on growth. Single colonies were picked and transferred into 2–3 mL of the Mueller–Hinton II (MH II) broth (BD, Heidelberg, Germany). The bacteria were cultivated overnight, subcultured on fresh medium and grown for 3–4 h before testing at 37 °C, with shaking at 180 rpm. We measured the optical density at 600 nm (OD600) of 1 mL of the bacterial suspensions in polystyrene cuvettes (SARSTED, Nümbrecht, Germany) using an Ultrospec 10 spectrophotometer (Biochrome, Cambridge, UK). We then diluted them with the MH II medium to the preferred OD600 (Table 2). The peptides were dissolved in DMSO to generate 10 mmol/L stocks and diluted with the MH II medium to 200 µM before the assay. We used 10 µg/mL (~40 µg/mL for S. epidermidis) gentamicin and colistin (Sigma-Aldrich, Taufkirchen, Germany), DMSO and the medium only as controls. The bacteria were transferred to 96-multiwell plates with a final volume of 100 µL per well (50 µL bacterial suspension, and 50 µL test peptide). The OD600 was measured at 0, 24 and 48 h using a BioTek Eon microplate reader followed by analysis with Gen5 v2.09."}, "[2]": {"test_system": "Pseudomonas aeruginosa DSM 50071", "test": "Antibacterial growth assay (OD600)", "details": "OD600, medium = 100, MH II broth; for Bacterial growth relative to medium, P. aeruginosa (50071), replicate 1: replicate column 1; for Bacterial growth relative to medium, P. aeruginosa (50071), replicate 2: replicate column 2; for Bacterial growth relative to medium, P. aeruginosa (50071), replicate 3: replicate column 3", "description": "as §1"}, "[3]": {"test_system": "Micrococcus luteus DSM 20030", "test": "Antibacterial growth assay (OD600)", "details": "OD600, medium = 100, MH II broth; for Bacterial growth relative to medium, M. luteus, replicate 1: replicate column 1; for Bacterial growth relative to medium, M. luteus, replicate 2: replicate column 2; for Bacterial growth relative to medium, M. luteus, replicate 3: replicate column 3"}, "[4]": {"test_system": "Staphylococcus aureus DSM 2569", "test": "Antibacterial growth assay (OD600)", "details": "OD600, medium = 100, MH II broth; for Bacterial growth relative to medium, S. aureus, replicate 1: replicate column 1; for Bacterial growth relative to medium, S. aureus, replicate 2: replicate column 2; for Bacterial growth relative to medium, S. aureus, replicate 3: replicate column 3", "description": "as §1"}, "[5]": {"test_system": "Escherichia coli BL21(DE3)", "test": "Antibacterial growth assay (OD600)", "details": "OD600, medium = 100, MH II broth; for Bacterial growth relative to medium, E. coli, replicate 1: replicate column 1; for Bacterial growth relative to medium, E. coli, replicate 2: replicate column 2; for Bacterial growth relative to medium, E. coli, replicate 3: replicate column 3"}, "[6]": {"test_system": "Listeria monocytogenes DSM 20600", "test": "Antibacterial growth assay (OD600)", "details": "for Bacterial growth relative to medium, L. monocytogenes, replicate 1 / Bacterial growth relative to medium, L. monocytogenes, replicate 2 / Bacterial growth relative to medium, L. monocytogenes, replicate 3: OD600, medium = 100, MH II broth; for Bacterial growth relative to medium, L. monocytogenes, replicate 1: replicate column 1; for Bacterial growth relative to medium, L. monocytogenes, replicate 2: replicate column 2; for Bacterial growth relative to medium, L. monocytogenes, replicate 3: replicate column 3"}, "[7]": {"test_system": "Staphylococcus epidermidis DSM 28319", "test": "Antibacterial growth assay (OD600)", "details": "for Bacterial growth relative to medium, S. epidermidis, replicate 1: replicate column 1; for Bacterial growth relative to medium, S. epidermidis, replicate 2: replicate column 2; for Bacterial growth relative to medium, S. epidermidis, replicate 3: replicate column 3"}, "[8]": {"test_system": "B/Malaysia/2506/2004 (B-Mal)", "type": "cell-based, influenza virus"}, "[9]": {"test_system": "A/Hamburg/05/2009 (H1N1)", "type": "cell-based, influenza virus"}, "[10]": {"test_system": "A/Hessen/1/2003 (H3N2)", "type": "cell-based, influenza virus"}, "[11]": {"test_system": "panel of seven bacterial strains", "test": "Antibacterial growth assay (OD600), statements on the whole panel", "type": "cell-based", "details": "growth after 48 h"}, "[12]": {"details": "antibiotic control, table line says 10µg/mL (methods: ~40 µg/mL for S. epidermidis), OD600, medium = 100"}, "[13]": {"details": "37 °C, peptide 200 µM mixed 50 µL + 50 µL with bacteria, Figure 7: 48 h"}, "[14]": {"details": "OD600, medium = 100, MH II broth, 37 °C, peptide 200 µM mixed 50 µL + 50 µL with bacteria, Figure 7: 48 h"}}}
{"compound": "CNC(C)C1CCC(N)C(OC2C(N)CC(N)C(OC3OCC(C)(O)C(NC)C3O)C2O)O1", "note": "(centres unmarked) [Genta, gentamicin, reference compound]", "values": [{"measurement": "Bacterial growth relative to medium, P. aeruginosa (1117), replicate 1", "setting": "[1]; antibiotic control 10µg/mL", "value": 7.251}, {"measurement": "Bacterial growth relative to medium, P. aeruginosa (1117), replicate 2", "setting": "[1]; antibiotic control 10µg/mL", "value": 12.1419}, {"measurement": "Bacterial growth relative to medium, P. aeruginosa (1117), replicate 3", "setting": "[1]; antibiotic control 10µg/mL", "value": 0.7836}, {"measurement": "Bacterial growth relative to medium, P. aeruginosa (50071), replicate 1", "setting": "[2]; antibiotic control 10µg/mL", "value": 10.9397}, {"measurement": "Bacterial growth relative to medium, P. aeruginosa (50071), replicate 2", "setting": "[2]; antibiotic control 10µg/mL", "value": 9.403}, {"measurement": "Bacterial growth relative to medium, P. aeruginosa (50071), replicate 3", "setting": "[2]; antibiotic control 10µg/mL", "value": 6.959}, {"measurement": "Bacterial growth relative to medium, M. luteus, replicate 1", "setting": "[3]; antibiotic control 10µg/mL", "value": 34.7531}, {"measurement": "Bacterial growth relative to medium, M. luteus, replicate 2", "setting": "[3]; antibiotic control 10µg/mL", "value": 33.0988}, {"measurement": "Bacterial growth relative to medium, M. luteus, replicate 3", "setting": "[3]; antibiotic control 10µg/mL", "value": 25.6914}, {"measurement": "Bacterial growth relative to medium, S. aureus, replicate 1", "setting": "[4]; antibiotic control 10µg/mL", "value": 10.1302}, {"measurement": "Bacterial growth relative to medium, S. aureus, replicate 2", "setting": "[4]; antibiotic control 10µg/mL", "value": 22.1938}, {"measurement": "Bacterial growth relative to medium, S. aureus, replicate 3", "setting": "[4]; antibiotic control 10µg/mL", "value": 8.389}, {"measurement": "Bacterial growth relative to medium, E. coli, replicate 1", "setting": "[5]; antibiotic control 10µg/mL", "value": 15.2669}, {"measurement": "Bacterial growth relative to medium, E. coli, replicate 2", "setting": "[5]; antibiotic control 10µg/mL", "value": 26.3127}, {"measurement": "Bacterial growth relative to medium, E. coli, replicate 3", "setting": "[5]; antibiotic control 10µg/mL", "value": 7.573}, {"measurement": "Bacterial growth relative to medium, L. monocytogenes, replicate 1", "setting": "[6]; antibiotic control 10µg/mL", "value": 41.2443}, {"measurement": "Bacterial growth relative to medium, L. monocytogenes, replicate 2", "setting": "[6]; antibiotic control 10µg/mL", "value": 32.6505}, {"measurement": "Bacterial growth relative to medium, L. monocytogenes, replicate 3", "setting": "[6]; antibiotic control 10µg/mL", "value": 13.0219}, {"measurement": "Bacterial growth relative to medium, S. epidermidis, replicate 1", "setting": "[7]; [12]", "value": 41.1615}, {"measurement": "Bacterial growth relative to medium, S. epidermidis, replicate 2", "setting": "[7]; [12]", "value": 36.2191}, {"measurement": "Bacterial growth relative to medium, S. epidermidis, replicate 3", "setting": "[7]; [12]", "value": 58.2561}]}
{"compound": "SLFGLLDLVKNKVGQTGLL [LS-AMP-A2]", "values": [{"measurement": "Viability of infected cells relative to aprotinin, Replicate 1", "setting": "[8]", "value": 0.03127}, {"measurement": "Viability of infected cells relative to aprotinin, Replicate 2", "setting": "[8]", "value": 0.04494}, {"measurement": "Viability of infected cells relative to aprotinin, Replicate 3", "setting": "[8]", "value": 0.06464}, {"measurement": "Viability of infected cells relative to aprotinin, Replicate 1", "setting": "[9]", "value": 0.06714}, {"measurement": "Viability of infected cells relative to aprotinin, Replicate 2", "setting": "[9]", "value": 0.03978}, {"measurement": "Viability of infected cells relative to aprotinin, Replicate 3", "setting": "[9]", "value": 0.06798}, {"measurement": "Viability of infected cells relative to aprotinin, Replicate 4", "setting": "[9]; […], replicate 4 (additional internal control)", "value": 0.02665}, {"measurement": "Viability of infected cells relative to aprotinin, Replicate 5", "setting": "[9]; […], replicate 5 (additional internal control)", "value": 0.03333}, {"measurement": "Viability of infected cells relative to aprotinin, Replicate 1", "setting": "[10]", "value": 0.05065}, {"measurement": "Viability of infected cells relative to aprotinin, Replicate 2", "setting": "[10]", "value": 0.0432}, {"measurement": "Viability of infected cells relative to aprotinin, Replicate 3", "setting": "[10]", "value": 0.03436}, {"measurement": "Antibacterial activity over the panel (in words)", "setting": "[11]", "value": "limited activity"}, {"measurement": "Bacterial growth relative to medium, P. aeruginosa (1117), replicate 1", "setting": "[1]; [13]", "value": 64.5445}, {"measurement": "Bacterial growth relative to medium, P. aeruginosa (1117), replicate 2", "setting": "[1]; [13]", "value": 72.5374}, {"measurement": "Bacterial growth relative to medium, P. aeruginosa (1117), replicate 3", "setting": "[1]; [13]", "value": 62.225}, {"measurement": "Antibacterial activity (in words)", "setting": "[1]; P. aeruginosa DSM 1117, growth after 48 h", "value": "less effective"}, {"measurement": "Bacterial growth relative to medium, P. aeruginosa (50071), replicate 1", "setting": "[2]; [13]", "value": 100.368}, {"measurement": "Bacterial growth relative to medium, P. aeruginosa (50071), replicate 2", "setting": "[2]; [13]", "value": 113.753}, {"measurement": "Bacterial growth relative to medium, P. aeruginosa (50071), replicate 3", "setting": "[2]; [13]", "value": 87.799}, {"measurement": "Bacterial growth relative to medium, M. luteus, replicate 1", "setting": "[3]; [13]", "value": 118.679}, {"measurement": "Bacterial growth relative to medium, M. luteus, replicate 2", "setting": "[3]; [13]", "value": 181.194}, {"measurement": "Bacterial growth relative to medium, M. luteus, replicate 3", "setting": "[3]; [13]", "value": 65.5667}, {"measurement": "Bacterial growth relative to medium, S. aureus, replicate 1", "setting": "[4]; [13]", "value": 88.0937}, {"measurement": "Bacterial growth relative to medium, S. aureus, replicate 2", "setting": "[4]; [13]", "value": 87.9986}, {"measurement": "Bacterial growth relative to medium, S. aureus, replicate 3", "setting": "[4]; [13]", "value": 104.003}, {"measurement": "Bacterial growth relative to medium, E. coli, replicate 1", "setting": "[5]; [13]", "value": 128.192}, {"measurement": "Bacterial growth relative to medium, E. coli, replicate 2", "setting": "[5]; [13]", "value": 150.174}, {"measurement": "Bacterial growth relative to medium, E. coli, replicate 3", "setting": "[5]; [13]", "value": 124.918}, {"measurement": "Antibacterial activity (in words)", "setting": "[6]; L. monocytogenes DSM 20600, growth after 48 h", "value": "less effective"}, {"measurement": "Bacterial growth relative to medium, L. monocytogenes, replicate 1", "setting": "[6]; [13]", "value": 66.982}, {"measurement": "Bacterial growth relative to medium, L. monocytogenes, replicate 2", "setting": "[6]; [13]", "value": 116.711}, {"measurement": "Bacterial growth relative to medium, L. monocytogenes, replicate 3", "setting": "[6]; [13]", "value": 86.9442}, {"measurement": "Bacterial growth relative to medium, S. epidermidis, replicate 1", "setting": "[7]; [14]", "value": 112.577}, {"measurement": "Bacterial growth relative to medium, S. epidermidis, replicate 2", "setting": "[7]; [14]", "value": 143.959}, {"measurement": "Bacterial growth relative to medium, S. epidermidis, replicate 3", "setting": "[7]; [14]", "value": 90.9149}]}
